Results as given in US8211463B2, “Use of glycolipids as adjuvants” (Helmholtz-Zentrum Fuer Infektionsforschung GmbH, priority 2006, dated 2012).

Legend:
[1] = tested on: β-Gal-specific systemic IgG; experiment: β-Gal-specific serum IgG ELISA after i.n. or s.c. immunisation with β-Gal plus glycolipid adjuvant; format: in vivo, Balb/c mice; settings: day 38
Description: Co-administration of β-Gal with 10 μg glycolipids 1, 5 and 6 induced β-Gal-specific systemic IgG responses in Balb/c mice. Balb/c mice were immunized by the i.n. or s.c. route with β-Gal alone or together with glycolipids 1, 5 and 6 three times at 2-wk intervals. 10 days after the final immunization, the immunized mice were sacrified. The levels of β-Gal-specific systemic IgG were determined in Sera of mice immunized by the i.n. (A) and s.c. (B) route. […] The parenteral administration of with β-Gal co-administered with glycolipids 1, 5 and 6 doubled the β-Galactosidase-specific IgG titer (>500000) in comparison to animals which were immunized with β-Gal alone. Bars represent mean Ab titer or amount±SE in each group. […]
Balb/c mice were immunized by the i.n. or s.c. route with β-Gal alone or together with glycolipids 5 and 6 three times at 2-wk intervals. […] The levels of β-Gal-specific systemic IgG were determined in Sera of mice immunized by the i.n. (A) and s.c. (B) route. […]
Experimental protocol: six-eight weeks-old female BALB/c (H-2d) mice were purchased from Harlan Winkelmann GmbH (Borchen, Germany) and treated in accordance with local and European Community guidelines. […] Endpoint titers were expressed as the reciprocal log 2 of the last dilution, which gave an optical density at 405 nm of 0.1 units above the values of the negative controls after 15 to 30 min of incubation.

[2] = tested on: spleen cells of immunized mice; experiment: Splenocyte proliferation ([3H]thymidine incorporation) after in vitro restimulation with β-Gal; format: in vivo, Balb/c mice; settings: i.n., 10 μg glycolipid, restimulation with β-Gal for 4 days
Description: (§1) Co-administration of β-Gal with 10 μg glycolipids 1, 5 and 6 induced a strong cellular immune responses against the β-Gal antigen in Balb/c mice. Balb/c mice were immunized by the i.n. or s.c. route with β-Gal alone or together with glycolipids 1, 5 and 6 three times at 2-wk intervals. 10 days after the final immunization, the immunized mice were sacrificed. Splenocytes of mice immunized by the i.n. (A) and s.c. (B) route were collected and cultured with different concentrations of the β-Gal-Protein for 4 days. […] Curves represent [^3H]thymidine incorporation (counts per minute, cpm) and Stimulation index (SI) in each group. Each group consists of five mice. Data are representative of three separate experiments.
as §1, with “with 20 up to 30” for “with 10”, “glycolipids” for “glycolipids 1,”, “represent [3H]thymidine incorpoaration” for “represent [^3H]thymidine incorporation”
Experimental protocol: Spleens were removed and pooled for analysis of cellular immune responses. Cells were grown in RPMI 1640 supplemented with 10% fetal calf serum, 100 U/ml of penicillin, 50 μg/ml of streptomycin, 5×10^−5 M 2-mercaptoethanol and 1 mM L-glutamine (GIBCO BRL, Karlsruhe, Germany) and maintained at 37° C. in a humidified 5% CO2 atmosphere. Spleen cell suspensions were adjusted to 5×10^6 cells/ml in complete medium, cells were seeded with 100 μl per well in a flat-bottomed 96-well microtiter plate (Nunc) and plates were incubated for 4 days. Unstimulated spleen cells were incubated in the presence of different concentrations of the new adjuvants to analyze the in vitro stimulation capacity of glycolipids 1, 5 or 6, respectively. T cellmediated immune responses were investigated at day 38 by measuring the proliferation of cells recovered from spleens after in vitro restimulation with β-Gal. Said spleen cells were obtained from vaccinated mice—said mice where immunized as described in Example 2—and incubated in the presence of different concentrations of the soluble β-Gal antigen. Each concentration was tested in triplicates. During the final 18 h of culture, 1 μCi of [^3H]thymidine (Amersham International, Freiburg, Germany) was added to each well. Cells were then harvested on paper filters (Filtermat A; Wallac, Freiburg, Germany) by using a cell harvester (Inotech, Wohlen, Switzerland), and the amount of incorporated [^3H]thymidine into the DNA of proliferating cells was determined by a β-scintillation counter (Wallac 1450, Micro-Trilux). The results are expressed as the arithmetic mean of [^3H]thymidine uptake in cpm.

β-Gal
β-Galactosidase-specific IgG titer in serum ([1]; 10 μg glycolipid + 30 μg β-Gal, three immunisations): < 1/10000 and very low antibody titers
β-Galactosidase-specific IgG titer in serum ([1]; 20 or 30 μg glycolipid + 30 μg β-Gal): < 1/10000
Stimulation index (SI), [3H]thymidine incorporation of spleen cells [2]: no effect
